Laboratory results from ChEMBL document CHEMBL1201862, “PubChem BioAssay data set” (2004).
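Values below derive from 48-hour exposures of cells grown in 96-well plates, with endpoints linearly interpolated between the two concentrations bracketing the appropriate inhibition level. GI50: concentration for 50% inhibition of growth.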 Activity calls are given as the source filed them. Rule as the data show it: active = GI50 up to about 1.1 µM and inactive = higher.

Assays:
Assay in all cases: NCI anticancer screen, dose series, 48 h
U-251 = test system: U-251
UACC-257 = test system: UACC-257
HOP-92 = test system: HOP-92
OVCAR-8 = test system: OVCAR-8
A498 = test system: A498
UO-31 = test system: UO-31
NCI-H23 = test system: NCI-H23
K562 = test system: K562
TK-10 = test system: TK-10
MDA-MB-435 = test system: MDA-MB-435
LOX IMVI = test system: LOX IMVI
MCF7 = test system: MCF7
PC-3 = test system: PC-3
NCI-H460 = test system: NCI-H460
SR = test system: SR
HT-29 = test system: HT-29
ACHN = test system: ACHN
SF-539 = test system: SF-539
HCT-116 = test system: HCT-116
MDA-N = test system: MDA-N
OVCAR-4 = test system: OVCAR-4
SW-620 = test system: SW-620
CCRF-CEM = test system: CCRF-CEM
SNB-75 = test system: SNB-75
SF-295 = test system: SF-295
KM12 = test system: KM12
MOLT-4 = test system: MOLT-4
SN12C = test system: SN12C
NCI-H522 = test system: NCI-H522
SK-OV-3 = test system: SK-OV-3
NCI-H226 = test system: NCI-H226
SK-MEL-5 = test system: SK-MEL-5
NCI/ADR-RES = test system: NCI/ADR-RES
SNB-19 = test system: SNB-19
HCC 2998 = test system: HCC 2998
A549 = test system: A549
MDA-MB-231 = test system: MDA-MB-231
HOP-62 = test system: HOP-62
OVCAR-5 = test system: OVCAR-5
IGROV-1 = test system: IGROV-1
Hs-578T = test system: Hs-578T
786-0 = test system: 786-0
UACC-62 = test system: UACC-62
T47D = test system: T47D
OVCAR-3 = test system: OVCAR-3
EKVX = test system: EKVX
RXF 393 = test system: RXF 393
COLO 205 = test system: COLO 205
SF-268 = test system: SF-268
HCT-15 = test system: HCT-15
HL-60 = test system: HL-60
Malme-3M = test system: Malme-3M
M14 = test system: M14
DU-145 = test system: DU-145
SK-MEL-28 = test system: SK-MEL-28
SK-MEL-2 = test system: SK-MEL-2
BT-549 = test system: BT-549
RPMI-8226 = test system: RPMI-8226
CAKI-1 = test system: CAKI-1

O[C@H]1[C@H](O)[C@@H](O)[C@@]2(O)C[C@@H](O)[C@@H]1N2
GI50 (U-251): > 100 µM (inactive)
GI50 (UACC-257): > 100 µM (inactive)
GI50 (HOP-92): > 100 µM (inactive)
GI50 (OVCAR-8): > 100 µM (inactive)
GI50 (A498): > 100 µM (inactive)
GI50 (UO-31): 85.7 µM (inactive)
GI50 (NCI-H23): > 100 µM (inactive)
GI50 (K562): > 100 µM (inactive)
GI50 (TK-10): > 100 µM (inactive)
GI50 (MDA-MB-435): > 100 µM (inactive)
GI50 (LOX IMVI): > 100 µM (inactive)
GI50 (MCF7): > 100 µM (inactive)
GI50 (PC-3): > 100 µM (inactive)
GI50 (NCI-H460): > 100 µM (inactive)
GI50 (SR): > 100 µM (inactive)
GI50 (HT-29): > 100 µM (inactive)
GI50 (ACHN): > 100 µM (inactive)
GI50 (SF-539): > 100 µM (inactive)
GI50 (HCT-116): > 100 µM (inactive)
GI50 (MDA-N): > 100 µM (inactive)
GI50 (OVCAR-4): > 100 µM (inactive)
GI50 (SW-620): > 100 µM (inactive)
GI50 (CCRF-CEM): > 100 µM (inactive)
GI50 (SNB-75): > 100 µM (inactive)
GI50 (SF-295): > 100 µM (inactive)
GI50 (KM12): > 100 µM (inactive)
GI50 (MOLT-4): > 100 µM (inactive)
GI50 (SN12C): > 100 µM (inactive)
GI50 (NCI-H522): > 100 µM (inactive)
GI50 (SK-OV-3): > 100 µM (inactive)
GI50 (NCI-H226): > 100 µM (inactive)
GI50 (SK-MEL-5): > 100 µM (inactive)
GI50 (NCI/ADR-RES): > 100 µM (inactive)
GI50 (SNB-19): > 100 µM (inactive)
GI50 (HCC 2998): > 100 µM (inactive)
GI50 (A549): > 100 µM (inactive)
GI50 (MDA-MB-231): > 100 µM (inactive)
GI50 (HOP-62): > 100 µM (inactive)
GI50 (OVCAR-5): > 10 µM (inactive)
GI50 (IGROV-1): > 100 µM (inactive)
GI50 (Hs-578T): > 100 µM (inactive)
GI50 (786-0): > 100 µM (inactive)
GI50 (UACC-62): > 100 µM (inactive)
GI50 (T47D): > 100 µM (inactive)
GI50 (OVCAR-3): > 100 µM (inactive)
GI50 (EKVX): > 100 µM (inactive)
GI50 (RXF 393): > 100 µM (inactive)
GI50 (COLO 205): > 100 µM (inactive)
GI50 (SF-268): > 100 µM (inactive)
GI50 (HCT-15): > 100 µM
GI50 (HL-60): > 100 µM (inactive)
GI50 (Malme-3M): > 100 µM (inactive)
GI50 (M14): > 100 µM (inactive)
GI50 (DU-145): > 100 µM (inactive)
GI50 (SK-MEL-28): > 100 µM (inactive)

C=CCN1C(=O)/C(=C/c2ccccc2)N=C1SC1OC(COC(=O)c2ccccc2)C(OC(=O)c2ccccc2)C1OC(=O)c1ccccc1 (configuration not stated)
GI50 (U-251): > 100 µM (inactive)
GI50 (UACC-257): 25.7 µM (inactive)
GI50 (HOP-92): 60.5 µM (inactive)
GI50 (OVCAR-8): > 100 µM (inactive)
GI50 (A498): 49.8 µM (inactive)
GI50 (NCI-H23): > 100 µM (inactive)
GI50 (K562): 46.2 µM (inactive)
GI50 (TK-10): > 100 µM (inactive)
GI50 (MDA-MB-435): > 100 µM (inactive)
GI50 (LOX IMVI): 78.3 µM (inactive)
GI50 (MCF7): 15.1 µM (inactive)
GI50 (PC-3): > 100 µM (inactive)
GI50 (NCI-H460): > 100 µM (inactive)
GI50 (SR): 64.3 µM (inactive)
GI50 (SK-MEL-2): > 100 µM (inactive)
GI50 (ACHN): 30.3 µM (inactive)
GI50 (SF-539): > 100 µM (inactive)
GI50 (OVCAR-4): > 100 µM (inactive)
GI50 (SW-620): 79.8 µM (inactive)
GI50 (CCRF-CEM): 34.9 µM (inactive)
GI50 (SNB-75): > 100 µM (inactive)
GI50 (SF-295): > 100 µM (inactive)
GI50 (KM12): > 100 µM (inactive)
GI50 (MOLT-4): > 100 µM (inactive)
GI50 (NCI-H522): 10.4 µM (inactive)
GI50 (SK-OV-3): > 100 µM (inactive)
GI50 (NCI-H226): > 100 µM (inactive)
GI50 (SK-MEL-5): > 100 µM (inactive)
GI50 (NCI/ADR-RES): > 100 µM (inactive)
GI50 (HCC 2998): > 100 µM (inactive)
GI50 (MDA-MB-231): 91.2 µM (inactive)
GI50 (HOP-62): > 100 µM (inactive)
GI50 (OVCAR-5): 44.3 µM (inactive)
GI50 (IGROV-1): > 100 µM (inactive)
GI50 (BT-549): > 100 µM (inactive)
GI50 (UACC-62): 31.3 µM (inactive)
GI50 (OVCAR-3): > 100 µM (inactive)
GI50 (EKVX): > 100 µM (inactive)
GI50 (RXF 393): > 100 µM (inactive)
GI50 (COLO 205): > 100 µM (inactive)
GI50 (HCT-15): > 100 µM
GI50 (RPMI-8226): 16.4 µM (inactive)
GI50 (HL-60): 32.8 µM (inactive)
GI50 (Malme-3M): > 100 µM (inactive)
GI50 (CAKI-1): 97.9 µM (inactive)
GI50 (DU-145): > 100 µM (inactive)
GI50 (SK-MEL-28): > 100 µM (inactive)
